Experimental data: ChEMBL document CHEMBL2074033, “In vivo imaging of hepatobiliary transport function mediated by multidrug resistance associated protein and P-glycoprotein” (Cancer Chemother Pharmacol, 2004)

Target: ATP-dependent translocase ABCB1 (Homo sapiens, UniProt P08183)
Assay: TP_TRANSPORTER: cell accumulation in GLP4/P-gp cells
Format: functional, cell-based

Sequence of ATP-dependent translocase ABCB1 (P08183 whole entry): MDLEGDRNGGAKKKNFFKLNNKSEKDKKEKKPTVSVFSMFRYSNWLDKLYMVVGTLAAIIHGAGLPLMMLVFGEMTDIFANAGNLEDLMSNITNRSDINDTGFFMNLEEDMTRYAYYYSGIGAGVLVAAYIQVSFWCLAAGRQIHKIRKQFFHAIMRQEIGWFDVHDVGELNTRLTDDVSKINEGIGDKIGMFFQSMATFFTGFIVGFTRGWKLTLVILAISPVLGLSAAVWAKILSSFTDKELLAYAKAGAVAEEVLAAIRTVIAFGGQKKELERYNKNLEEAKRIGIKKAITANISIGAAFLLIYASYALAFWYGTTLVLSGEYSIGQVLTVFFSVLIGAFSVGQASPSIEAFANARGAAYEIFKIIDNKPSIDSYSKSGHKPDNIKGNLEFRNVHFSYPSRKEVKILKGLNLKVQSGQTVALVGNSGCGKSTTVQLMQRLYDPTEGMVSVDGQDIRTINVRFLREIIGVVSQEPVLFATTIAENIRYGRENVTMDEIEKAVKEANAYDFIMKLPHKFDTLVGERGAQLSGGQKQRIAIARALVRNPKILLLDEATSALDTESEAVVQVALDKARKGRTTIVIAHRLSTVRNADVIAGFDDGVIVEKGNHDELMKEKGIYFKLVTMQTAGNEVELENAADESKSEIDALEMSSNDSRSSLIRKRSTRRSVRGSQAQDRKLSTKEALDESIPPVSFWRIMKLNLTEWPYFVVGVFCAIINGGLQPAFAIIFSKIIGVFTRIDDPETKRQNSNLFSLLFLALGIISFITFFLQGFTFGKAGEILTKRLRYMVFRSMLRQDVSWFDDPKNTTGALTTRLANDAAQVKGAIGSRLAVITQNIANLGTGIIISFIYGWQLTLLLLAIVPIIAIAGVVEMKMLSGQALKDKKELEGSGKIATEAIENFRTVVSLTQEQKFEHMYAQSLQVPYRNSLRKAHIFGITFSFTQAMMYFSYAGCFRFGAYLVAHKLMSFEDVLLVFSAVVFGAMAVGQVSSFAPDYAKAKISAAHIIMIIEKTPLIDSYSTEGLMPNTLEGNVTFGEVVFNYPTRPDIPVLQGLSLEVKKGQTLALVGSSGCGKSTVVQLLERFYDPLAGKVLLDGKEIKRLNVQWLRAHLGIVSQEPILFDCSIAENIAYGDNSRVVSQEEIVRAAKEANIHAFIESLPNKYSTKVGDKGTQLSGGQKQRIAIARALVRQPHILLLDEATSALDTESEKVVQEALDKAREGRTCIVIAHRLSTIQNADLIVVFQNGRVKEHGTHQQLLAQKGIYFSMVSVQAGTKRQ

In the case of TECHNETIUM TC 99M DISOFENIN, the Activity is reported as “is not a substrate [-]”.
